The structures appear in SMILES notation.

As usually defined, the melting point is the temperature, or range, at which the solid turns liquid.

Turning to `Cc1ccc(-n2nc(C)cc2O)cc1`, the melting point is 132 to 133 °C.

As to `O=[N+]([O-])c1ccc(Cl)cc1O`, the melting point came out at 41 °C.

With `CC(O)=NNC(N)=O`, the melting point was found to be 165 °C.

`Cc1ccncc1[N+](=O)[O-]`: the melting point is 20 °C.

Turning to `Nc1ccc2c(c1)C(=O)c1ccccc1-2`, the melting point was 152 to 157 °C.

`CC1NC(C(=O)O)Cc2c1[nH]c1ccccc21` (configuration not stated) showed a melting point of 243 to 245 °C.

Compound `Clc1cc(Cl)c2ccccc2n1` registered a melting point of 67.5 °C.

Regarding `CCOC(=O)c1sc(N)nc1C`, the melting point fell in the range of 177 to 178 °C.

The compound `Nc1ccc(I)cc1` yielded a melting point of 67.5 °C.

Compound `O=C(O)CCCc1ccc2ccc3cccc4ccc1c2c34` came in with a melting point of 185 to 190 °C.

`Cc1cc2ccccc2nc1C`: the melting point came to 68.5 °C.

Consider `CNC(=O)C(=NOC)c1ccccc1Oc1ccccc1`, for which the melting point was found to be 88 °C.

Compound `Cc1cc(C(F)(F)F)c(C#N)c(=S)[nH]1` had a melting point of 200 °C.

Regarding `NCc1ccc(-c2nccs2)cc1`, the melting point fell in the range of 39 to 42 °C.

For `Brc1sc(-c2ccccc2)nc1-c1ccccc1`, the melting point lay within 88 to 89 °C.

Turning to `CC1=CC(C)(C)Nc2ccccc21`, the melting point came to 26.5 °C.

`Cc1nc2cc(Cl)ccc2s1` gave a melting point of 69 °C.

In turn, `CCN(CC)CN1C(=O)/C(=C\c2ccc(Cl)cc2)SC1=S` gave a melting point of 89 °C.

In turn, `CC(=O)Nc1ccccc1CCc1ccccc1NC(C)=O` showed a melting point of 250 °C.

In turn, `Nc1cccc(-c2cncnc2)c1` returned a melting point of 163 to 166 °C.

The compound `CCCC(=O)c1cc(O)c(O)cc1O` returned a melting point of 154 °C.

`O=C1c2ccccc2C(=C2c3ccccc3C(=O)c3ccccc32)c2ccccc21` registered a melting point of 300 °C.

Take `N#CC(=Cc1cccnc1)C1N=c2ccccc2=N1`: the melting point came out at 229 °C.

`CCN(CC)C(=O)c1cccnc1` gave a melting point of 25 °C.

Compound `N#CCc1cccc(I)c1` displayed a melting point of 34 °C.

As to `ON=Cc1c(F)cccc1Cl`, the melting point was determined as 133 °C.

Compound `Nc1cccc(C(=O)O)c1O` returned a melting point of 240 °C.

`C=C(CCl)CCl`: the melting point was 14 °C.

`NNC(=O)N1N=C(c2ccccc2)CCC1=O` yielded a melting point of 166 to 168 °C.

On to `Nc1ccccc1C(=O)c1ccccc1C(=O)O`, for which the melting point fell in the range of 196 to 200 °C.

For the compound `CCCC1Nn2c(nnc2-c2ccc(OCC)cc2)S1` (configuration not stated), the melting point is 90 °C.

`CC(C=CC=C(C)C=CC1=C(C)C(=O)C(O)CC1(C)C)=CC=CC=C(C)C=CC=C(C)C=CC1=C(C)C(=O)C(O)CC1(C)C` (configuration not stated) showed a melting point of 182 °C.

Regarding `CCCCCCCCOC(=O)CCCCCC`, the melting point was -22.5 °C.

Take `CC(CN1C(=O)c2cccnc2Nc2ccccc21)N(C)C` (configuration not stated): the melting point was 122 °C.

`COC(=O)[C@]12c3ccccc3[C@]34c5ccccc5[C@H]1[C@@]32C(=O)O[C@@H]4C` had a melting point of 203 °C.

`CC(O)c1ccccc1C(F)(F)F` (configuration not stated) had a melting point of 38 to 40 °C.

The compound `CC1OC(OC2CCC3(C=O)C4CCC5(C)C(C6=CC(=O)OC6)CCC5(O)C4CCC3(O)C2)C(O)C(O)C1O` (configuration not stated) yielded a melting point of 238 °C.

Turning to `O=C(O)CS(=O)(=O)O`, the melting point was found to be 85 °C.

As for `COC(=O)C1=C(C)NC(C)=C(C(=O)OC)C1c1cccc(OC)c1O`, the melting point came to 191 °C.

In the case of `O=C(O)CNC(=O)OCc1ccccc1`, the melting point amounted to 121 °C.

Consider `CN1CCC23c4c5ccc(OCc6ccccc6)c4OC2C(O)C=CC3C1C5` (configuration not stated), for which the melting point was 132 °C.

On to `O=C=Nc1ccc(Br)cc1`, for which the melting point is 41 °C.

Take `CCOC(=O)c1cnn(-c2ccc(N)cc2)c1C`: the melting point lay within 91 to 92 °C.

As for `CCC1(O)C(=O)OCc2c1cc1n(c2=O)Cc2cc3c(CN(C)C)c(O)ccc3nc2-1` (configuration not stated), the melting point was 216 °C.

With `NC1CCC1`, the melting point was -4 °C.

As to `O=C(Nc1cccc([N+](=O)[O-])c1)Nc1cccc([N+](=O)[O-])c1`, the melting point amounted to 234 °C.

As for `O=[N+]([O-])c1ccc(/C(Cl)=C\c2cccc(/C=C(/Cl)c3ccc([N+](=O)[O-])cc3[N+](=O)[O-])c2)c([N+](=O)[O-])c1`, the melting point was determined as 215 °C.

`COc1ccc(C(N)CCO)cc1` (configuration not stated) had a melting point of 82 to 86 °C.

Turning to `COC(=O)Oc1c(F)c(F)c(F)c(F)c1F`, the melting point came out at 29 °C.

Compound `CC(=O)NC(CC(=O)O)C(=O)O` (configuration not stated) gave a melting point of 138 °C.

For the compound `O=C1OC(/C=C/c2ccc([N+](=O)[O-])cc2)Cc2ccccc21` (configuration not stated), the melting point fell in the range of 180 to 182 °C.

In turn, `CSc1nc(N)c(C(=O)c2ccc(Cl)cc2)s1` came in with a melting point of 148 to 150 °C.

With `CC1(C)C2CCC13CS(=O)(=O)N=C3C2` (configuration not stated), the melting point amounted to 227 °C.

Regarding `CSc1nc(N)c(C#N)s1`, the melting point was in the range of 207 to 210 °C.

The compound `Oc1ccc2c(c1)OCO2` had a melting point of 63 to 65 °C.

Compound `C[C@@]12CCC[C@@H]1C1=C(CC2)[C@@]2(C)CCC(=O)CC2CC1` (some centres not stated) yielded a melting point of 77 to 78 °C.

With `CC(C)CC(O)C(=O)O` (racemic), the melting point was 75 to 78 °C.

The compound `O=C(NCSCc1ccccc1)c1ccccc1` came in with a melting point of 79 to 80 °C.

In turn, `O=C(O)CCc1ccc(C(=O)O)cc1` displayed a melting point of 290 °C.

Regarding `Cc1cc(C)c(OC(=O)C(F)(F)F)cc1OC(=O)C(F)(F)F`, the melting point is 121 °C.

With `Cc1ccc2c(c1)C(=O)c1cc(C)ccc1C2=O`, the melting point came to 163 °C.

`Cc1nc(S)sc1C` registered a melting point of 166 to 168 °C.

The compound `NC(CC(=O)O)c1ccccc1` (racemic) yielded a melting point of 222 °C.

With `O=C1C=C2CC3(O)COc4c(ccc(O)c4O)C3=C2C=C1O` (configuration not stated), the melting point was determined as 180 °C.

Compound `COc1ccc(C(N)=S)cn1` had a melting point of 150 to 152 °C.

In turn, `CC(Oc1ccc(Oc2cnc3cc(Cl)ccc3n2)cc1)C(=O)OCC1CCCO1` (configuration not stated) showed a melting point of 64 °C.

As for `CSc1nc(=O)n(C2CCCCC2)c2c1CCC2`, the melting point is 192 to 194 °C.

Take `COc1ccc2c(c1)CC2O` (configuration not stated): the melting point was 39 to 41 °C.

As to `O=c1[nH]c2ccccc2c(-c2ccccc2)c1O`, the melting point came to 268 °C.

For `CC(=O)Nc1ccccc1Br`, the melting point was determined as 99 °C.

`N#CC(CCN1CCC(C(N)=O)(N2CCCCC2)CC1)(c1ccccc1)c1ccccc1` yielded a melting point of 150 °C.

For `O=C(O)CCc1ccccc1Br`, the melting point fell in the range of 96 to 98 °C.

Compound `COc1ccc(C(=O)CCl)cc1` yielded a melting point of 98 to 100 °C.

`Cn1cncc1C=O` yielded a melting point of 55 °C.

Take `COC(=O)c1ccc2snnc2c1`: the melting point lay within 118 to 120 °C.

For `CC(C=CC=C(C)C=CC1=C(C)CCCC1(C)C)=CC=CC=C(C)C=CC=C(C)C=CC1=C(C)C(=O)CCC1(C)C`, the melting point was 179 °C.

As to `Cc1cc(=O)[nH]c2c(/N=N/c3ccc(O)cc3)c(N)nn12`, the melting point was determined as 285 °C.

As to `COc1ccc([N+](=O)[O-])cc1NN=C1C(=O)C(C(=O)Nc2cccc([N+](=O)[O-])c2)=Cc2ccccc21`, the melting point was determined as 335 °C.

In the case of `CNC(=NCCSCc1nc[nH]c1C)NC#N`, the melting point was found to be 141 °C.

In turn, `NC(CO)(Cc1ccccc1)C(=O)O` (racemic) displayed a melting point of 245 to 263 °C.

In the case of `COc1cccc(C=C(C)[N+](=O)[O-])c1`, the melting point was 45 to 47 °C.

For the compound `CC(=O)OC1C(O)C2=C(C(=O)C(OC(C)=O)C3(CC3C)C2=O)C2(C)CCC(OC(C)=O)C(C)(C)C12` (configuration not stated), the melting point lay within 116 to 117 °C.

For `c1ccc(-c2c[nH]cn2)cc1`, the melting point amounted to 144 °C.

As to `O=C(Nc1ccc([N+](=O)[O-])cc1[N+](=O)[O-])C(C(F)(F)F)C(F)(F)F`, the melting point was 120 to 122 °C.

As for `[O-][P+](c1ccccc1)(c1ccccc1)C1C=C(c2ccccc2)C=C(c2ccccc2)S1` (configuration not stated), the melting point was 174 °C.

As to `CC(=O)c1ccc(Cl)c(Cl)c1Cl`, the melting point came to 62 °C.

In turn, `CC(O)C1(C)CCC2=C1CCC1C2CCC2(C)CC(O)CCC12C` (configuration not stated) registered a melting point of 205 to 207 °C.

For `COc1cc(C(=O)c2ccc(C)cc2)c([N+](=O)[O-])cc1OC`, the melting point amounted to 110 °C.

`O=[N+]([O-])c1cc2nccnc2cc1[N+](=O)[O-]` had a melting point of 188 to 191 °C.

`O=C(Nc1ccccc1Br)Nc1ccccc1Br`: the melting point was 235 to 237 °C.

As for `Nc1c(C=O)c(=O)oc2ccccc12`, the melting point lay within 267 to 268 °C.

As to `FC(F)(F)C(Cl)=C(Cl)C(F)(F)F`, the melting point is -67.3 °C.

Consider `S=C(SSC(=S)N1CCCCC1)N1CCCCC1`, for which the melting point was found to be 138 °C.

Regarding `Cc1ccc(S(=O)(=O)N(CCO)CCO)cc1`, the melting point was 94 to 100 °C.

`Cc1cc(Br)cnc1NC(=O)C(C)(C)C` showed a melting point of 127 °C.

`CCOc1ccc2ccc(=O)oc2c1`: the melting point came out at 90 °C.

As to `Cc1nc2scc(-c3ccccc3)c2c(=O)n1NC(=O)c1ccc(F)cc1`, the melting point is 138 to 140 °C.

In the case of `NNC(=O)c1cncc(Br)c1`, the melting point lay in the range of 199 to 202 °C.

For the compound `CC(=O)c1cc(Cl)cc(Cl)c1O`, the melting point amounted to 97 °C.

Consider `C#CC1=C(C=NNc2ccc([N+](=O)[O-])cc2[N+](=O)[O-])CCCC1`, for which the melting point amounted to 190 °C.

In turn, `C1=CC2CC1[C@@H](P(c1ccccc1)c1ccccc1)[C@@H]2P(c1ccccc1)c1ccccc1` gave a melting point of 120 to 125 °C.

Compound `COC(=O)c1cccc(C(=O)O)c1N` returned a melting point of 160 to 167 °C.

Consider `COc1ccc(OC)c(Cl)c1`, for which the melting point was found to be 8.1 °C.

`CC(=O)CC(C)=O` had a melting point of -23 °C.

In turn, `Sc1nnc(-c2cc(Cl)nc(Cl)c2)o1` had a melting point of 205 to 206 °C.

`O=C(C=Cc1ccc(F)cc1)c1ccc(F)cc1`: the melting point was 113 to 118 °C.

As for `Cc1nc2ccc([N+](=O)[O-])cc2o1`, the melting point was found to be 155 °C.

These data come from a melting point compilation (Tetko et al.).
